How the values were obtained:
MKK4 [1] = molecular target: T1, MKK4 (Homo sapiens, UniProt P45985); assay: 33PanQinase enzyme assay, MKK4; format: biochemical; settings: assay 'IC50'; read-out: Potency MKK4 (IC50)
T1 construct: purchased ProQinase GmbH, Freiburg, Germany (33PanQinase Assay Service)
T1 sequence (P45985 1-399): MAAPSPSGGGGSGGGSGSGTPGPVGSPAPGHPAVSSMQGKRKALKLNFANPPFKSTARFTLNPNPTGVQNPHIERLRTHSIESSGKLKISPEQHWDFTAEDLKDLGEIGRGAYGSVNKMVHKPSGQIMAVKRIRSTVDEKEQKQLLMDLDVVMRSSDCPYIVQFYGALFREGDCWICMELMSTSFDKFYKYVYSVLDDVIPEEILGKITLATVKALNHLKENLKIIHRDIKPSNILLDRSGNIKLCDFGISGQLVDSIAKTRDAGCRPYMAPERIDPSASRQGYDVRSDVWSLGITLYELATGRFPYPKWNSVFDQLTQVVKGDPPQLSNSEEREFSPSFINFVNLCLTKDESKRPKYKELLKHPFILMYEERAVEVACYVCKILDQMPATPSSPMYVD
Method in brief: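 Radiometric 33PanQinase assay: kinase, substrate, ATP and compound in standard buffer, 60 min at 30 °C; 33Pi incorporation read by scintillation counting.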

JNK1 [2] = molecular target: T2, JNK1 (Homo sapiens, UniProt P45983); assay: 33PanQinase enzyme assay, JNK1; format: biochemical; set-up: purchased ProQinase GmbH, Freiburg, Germany (33PanQinase Assay Service); settings: ratio IC50(JNK1)/IC50(MKK4)
Method in brief: (§1)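 Radiometric 33PanQinase format: kinase with substrate, ATP and compound (added in 10% DMSO stock) incubated 60 min at 30° C, stopped with 2% H3PO4, ^33Pi incorporation counted by scintillation. Single-concentration data given as % residual activity; IC50 by least-squares fit, with selectivity as IC50(off-target)/IC50(MKK4).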
Target sequence in this assay (P45983 whole entry): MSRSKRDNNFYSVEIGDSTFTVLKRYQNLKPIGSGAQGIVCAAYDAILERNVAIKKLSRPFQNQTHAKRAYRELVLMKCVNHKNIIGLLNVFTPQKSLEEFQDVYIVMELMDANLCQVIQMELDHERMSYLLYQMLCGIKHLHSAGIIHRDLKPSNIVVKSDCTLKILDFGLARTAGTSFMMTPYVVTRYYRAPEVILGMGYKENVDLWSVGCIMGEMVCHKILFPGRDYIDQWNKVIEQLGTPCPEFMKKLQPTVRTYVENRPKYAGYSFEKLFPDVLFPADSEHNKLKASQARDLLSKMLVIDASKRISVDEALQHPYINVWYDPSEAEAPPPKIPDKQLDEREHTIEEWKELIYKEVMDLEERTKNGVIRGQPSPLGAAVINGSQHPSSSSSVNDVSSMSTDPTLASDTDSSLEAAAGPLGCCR

BRaf [3] = molecular target: T3, BRaf (Homo sapiens, UniProt P15056); assay: KINOMEscan competition binding assay, BRaf; settings: ratio PoC (off-target)/PoC (MKK4)
T3 construct: purchased ProQinase GmbH, Freiburg, Germany (33PanQinase Assay Service)
Method in brief: (§2)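 DNA-tagged kinases expressed in HEK-293 cells compete between immobilized ligand on blocked beads and test compound at 100 nM; kinase retained on beads quantified by qPCR of the tag.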

JNK1 [4] = molecular target: T2, JNK1; assay: KINOMEscan competition binding assay, JNK1; set-up: M1/Q384; host or cells: HEK-293; settings: ratio PoC (off-target)/PoC (MKK4)
Method in brief: as §2
Target sequence in this assay (P45983 1-384 isoform P45983-2): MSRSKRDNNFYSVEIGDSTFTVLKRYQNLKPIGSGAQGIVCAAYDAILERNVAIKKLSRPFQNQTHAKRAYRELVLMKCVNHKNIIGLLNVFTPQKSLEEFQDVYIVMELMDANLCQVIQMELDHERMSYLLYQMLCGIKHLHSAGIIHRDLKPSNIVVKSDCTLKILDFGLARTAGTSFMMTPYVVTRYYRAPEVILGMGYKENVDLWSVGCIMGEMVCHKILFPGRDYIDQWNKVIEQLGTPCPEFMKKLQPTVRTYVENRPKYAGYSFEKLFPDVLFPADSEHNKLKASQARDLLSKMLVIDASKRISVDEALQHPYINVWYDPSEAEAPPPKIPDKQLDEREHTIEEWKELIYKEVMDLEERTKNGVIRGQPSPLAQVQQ

MKK4 [5] = molecular target: T4, MKK4 (Homo sapiens, UniProt P45985); assay: KINOMEscan competition binding assay, MKK4; settings: residual percent of control binding (PoC) at 100 nM
T4 construct: S84/D399; host or cells: HEK-293
T4 sequence (P45985 84-399): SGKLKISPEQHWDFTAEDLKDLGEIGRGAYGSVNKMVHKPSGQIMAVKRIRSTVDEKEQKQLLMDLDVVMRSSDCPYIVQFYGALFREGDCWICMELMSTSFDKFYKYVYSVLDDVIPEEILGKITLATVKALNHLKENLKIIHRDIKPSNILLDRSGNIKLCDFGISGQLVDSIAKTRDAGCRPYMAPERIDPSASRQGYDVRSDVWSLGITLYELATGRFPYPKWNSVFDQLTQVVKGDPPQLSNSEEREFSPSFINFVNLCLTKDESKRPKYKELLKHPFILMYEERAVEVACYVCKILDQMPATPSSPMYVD
Method in brief: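 KINOMEscan competition of compound versus immobilized ligand for DNA-tagged MKK4 expressed in HEK-293 cells. Bound kinase was quantified by qPCR after elution.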

BRaf [6] = molecular target: T3, BRaf; assay: 33PanQinase enzyme assay, BRaf; format: biochemical; settings: ratio IC50(BRaf)/IC50(MKK4)
Method in brief: as §1

MKK7 [7] = molecular target: T5, MKK7 (Homo sapiens, UniProt O14733); assay: 33PanQinase enzyme assay, MKK7; format: biochemical; set-up: purchased ProQinase GmbH, Freiburg, Germany (33PanQinase Assay Service); settings: ratio IC50(MKK7)/IC50(MKK4)
T5 sequence (O14733 1-419): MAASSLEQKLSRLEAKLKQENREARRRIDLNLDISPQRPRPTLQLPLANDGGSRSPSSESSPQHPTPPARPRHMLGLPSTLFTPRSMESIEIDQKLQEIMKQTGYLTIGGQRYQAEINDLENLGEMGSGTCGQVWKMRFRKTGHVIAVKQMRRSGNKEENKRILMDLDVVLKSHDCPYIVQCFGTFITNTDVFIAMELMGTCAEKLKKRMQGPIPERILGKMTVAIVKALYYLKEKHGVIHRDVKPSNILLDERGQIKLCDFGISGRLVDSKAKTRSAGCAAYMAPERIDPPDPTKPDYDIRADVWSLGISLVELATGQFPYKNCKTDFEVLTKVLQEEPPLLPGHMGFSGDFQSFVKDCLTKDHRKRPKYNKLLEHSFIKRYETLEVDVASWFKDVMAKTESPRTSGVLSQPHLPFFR
Method in brief: as §1

MKK7 [8] = molecular target: T5, MKK7; assay: KINOMEscan competition binding assay, MKK7; set-up: M1/R419; host or cells: HEK-293; settings: ratio PoC (off-target)/PoC (MKK4)
Method in brief: as §2

T3 sequence (P15056 whole entry, species assumed): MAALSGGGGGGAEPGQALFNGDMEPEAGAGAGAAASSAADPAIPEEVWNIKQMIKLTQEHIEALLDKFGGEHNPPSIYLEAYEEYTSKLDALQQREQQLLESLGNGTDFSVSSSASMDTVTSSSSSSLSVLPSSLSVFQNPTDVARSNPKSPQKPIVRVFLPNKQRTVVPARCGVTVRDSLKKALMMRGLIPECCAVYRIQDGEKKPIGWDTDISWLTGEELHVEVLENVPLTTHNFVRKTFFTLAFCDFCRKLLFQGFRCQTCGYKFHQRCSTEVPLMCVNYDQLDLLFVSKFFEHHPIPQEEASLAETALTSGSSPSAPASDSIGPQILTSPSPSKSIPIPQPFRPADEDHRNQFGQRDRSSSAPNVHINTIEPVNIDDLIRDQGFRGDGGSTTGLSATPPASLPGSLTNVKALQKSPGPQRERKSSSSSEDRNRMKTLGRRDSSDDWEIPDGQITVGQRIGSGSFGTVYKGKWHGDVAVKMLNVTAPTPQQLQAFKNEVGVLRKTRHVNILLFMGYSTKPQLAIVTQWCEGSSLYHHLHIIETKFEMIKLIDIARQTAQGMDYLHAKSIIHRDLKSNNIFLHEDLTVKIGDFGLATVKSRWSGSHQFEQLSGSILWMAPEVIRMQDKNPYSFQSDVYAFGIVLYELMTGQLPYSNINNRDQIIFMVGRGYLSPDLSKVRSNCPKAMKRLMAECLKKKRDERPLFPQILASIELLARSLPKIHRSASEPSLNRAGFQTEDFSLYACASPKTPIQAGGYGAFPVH

SMILES | IC50 (MKK4 [1]) [nM] | Selectivity JNK1, IC50(off-target)/IC50(MKK4) (JNK1 [2]) | selectivity based on % Ctrl @100 nM vs. Braf (BRaf [3]) | selectivity based on % Ctrl @100 nM vs. JNK1 (JNK1 [4]) | MKK4 [% Ctrl @ 100 nM (MKK4 [5]) | Selectivity Braf, IC50(off-target)/IC50(MKK4) (BRaf [6]) | Selectivity IVIKK7, IC50(off-target)/IC50(MKK4) (MKK7 [7]) | selectivity based on % Ctrl @100 nM vs. MKK7 (MKK7 [8])
O=C(c1ccc(F)c(NS(=O)(=O)CCC(F)(F)F)c1F)c1c[nH]c2ncc(-c3cnc(N4CCCCC4)nc3)cc12 [Example 181, N-(2,6-difluoro-3-(5-(2-(piperidin-1-yl)pyrimidin-5-yl)-1H-pyrrolo[2,3-b]pyridine-3-carbonyl)phenyl)-3,3,3-trifluoropropane-1-sulfonamide] | 100 to 1000 | ++ (100 ≥ IC50(off-target)/IC50(MKK4) > 10) | +++ (Ratio > 100) | +++ (Ratio > 100) | +++ (PoC < 1) | +++ (IC50(off-target)/IC50(MKK4) > 100) | +++ (IC50(off-target)/IC50(MKK4) > 100) | +++ (Ratio > 100)
CCCS(=O)(=O)Nc1c(F)ccc(C(=O)c2c[nH]c3ncc(-c4ccc(C5CC5)nc4)cc23)c1F [Example 159, N-(3-(5-(6-cyclopropylpyridin-3-yl)-1H-pyrrolo[2,3-b]pyridine-3-carbonyl)-2,6-difluorophenyl)propane-1-sulfonamide] | < 100 | +++ (IC50(off-target)/IC50(MKK4) > 100) | +++ (Ratio > 100) | +++ (Ratio > 100) | +++ (PoC < 1) | ++ (100 ≥ IC50(off-target)/IC50(MKK4) > 10) | +++ (IC50(off-target)/IC50(MKK4) > 100) | +++ (Ratio > 100)
O=C(c1c(F)ccc(NS(=O)(=O)CCC(F)(F)F)c1F)c1c[nH]c2ncc(-c3ccc(N4CCOCC4)nc3)cc12 [Example 79, N-(2,4-difluoro-3-(5-(6-morpholinopyridin-3-yl)-1H-pyrrolo[2,3-b]pyridine-3-carbonyl)phenyl)-3,3,3-trifluoropropane-1-sulfonamide] | < 100 | ++ (100 ≥ IC50(off-target)/IC50(MKK4) > 10) | +++ (Ratio > 100) | +++ (Ratio > 100) | +++ (PoC < 1) | + (10 ≥ IC50(off-target)/IC50(MKK4) > 3) | +++ (IC50(off-target)/IC50(MKK4) > 100) | +++ (Ratio > 100)
C=Cc1ccc(-c2cnc3[nH]cc(C(=O)c4ccc(F)c(NS(=O)(=O)CCC)c4F)c3c2)cn1 [Example 163, N-(2,6-difluoro-3-(5-(6-vinylpyridin-3-yl)-1H-pyrrolo[2,3-b]pyridine-3-carbonyl)phenyl)propane-1-sulfonamide] | < 100 | ++ (100 ≥ IC50(off-target)/IC50(MKK4) > 10) | +++ (Ratio > 100) | +++ (Ratio > 100) | +++ (PoC < 1) | ++ (100 ≥ IC50(off-target)/IC50(MKK4) > 10) | +++ (IC50(off-target)/IC50(MKK4) > 100) | +++ (Ratio > 100)
CCCS(=O)(=O)Nc1c(F)ccc(C(=O)c2c[nH]c3ncc(-c4cnc(Cl)cn4)cc23)c1F [Example 211, N-(3-(5-(5-chloropyrazin-2-yl)-1H-pyrrolo[2,3-b]pyridine-3-carbonyl)-2,6-difluorophenyl)propane-1-sulfonamide] | 100 to 1000 | ++ (100 ≥ IC50(off-target)/IC50(MKK4) > 10) | +++ (Ratio > 100) | +++ (Ratio > 100) | +++ (PoC < 1) | +++ (IC50(off-target)/IC50(MKK4) > 100) | +++ (IC50(off-target)/IC50(MKK4) > 100) | +++ (Ratio > 100)
O=C(c1ccc(F)c(NS(=O)(=O)CCC(F)(F)F)c1F)c1c[nH]c2ncc(-c3ccc(C(F)(F)F)nc3)cc12 [Example 148, N-(2,6-difluoro-3-(5-(6-(trifluoromethyl)pyridin-3-yl)-1H-pyrrolo[2,3-b]pyridine-3-carbonyl)phenyl)-3,3,3-trifluoropropane-1-sulfonamide] | < 100 | +++ (IC50(off-target)/IC50(MKK4) > 100) | +++ (Ratio > 100) | +++ (Ratio > 100) | +++ (PoC < 1) | ++ (100 ≥ IC50(off-target)/IC50(MKK4) > 10) | +++ (IC50(off-target)/IC50(MKK4) > 100) | +++ (Ratio > 100)
CCCS(=O)(=O)Nc1c(F)ccc(C(=O)c2c[nH]c3ncc(-c4ccc(C(F)(F)F)nc4)cc23)c1F [Example 230, N-(2,6-difluoro-3-(5-(6-(trifluoromethyl)pyridin-3-yl)-1H-pyrrolo[2,3-b]pyridine-3-carbonyl)phenyl)propane-1-sulfonamide] | < 100 | +++ (IC50(off-target)/IC50(MKK4) > 100) | +++ (Ratio > 100) | +++ (Ratio > 100) | +++ (PoC < 1) | +++ (IC50(off-target)/IC50(MKK4) > 100) | +++ (IC50(off-target)/IC50(MKK4) > 100) | +++ (Ratio > 100)

Reference: US11912701B2, “Protein kinase inhibitors for promoting liver regeneration or reducing or preventing hepatocyte death” (HEPAREGENIX GMBH, priority 2018, dated 2024)
